Legend:
[1] = system: spindle assembly checkpoint (phosphorylated histone H3 on serine 10) in HeLa cells; experiment: SAC-Formation - Nocodazole-Induced Assay; type: cell-based; conditions: Homo sapiens, nocodazole 0.1 μg/ml, 24 h incubation
Description: (§1) The spindle assembly checkpoint assures the proper segregation of chromosomes during mitosis. Upon entry into mitosis, chromosomes begin to condensate which is accompanied by the phosphorylation of histone H3 on serine 10. Dephosphorylation of histone H3 on serine 10 begins in anaphase and ends at early telophase. Accordingly, phosphorylation of histone H3 on serine 10 can be utilized as a marker of cells in mitosis. Nocodazole is a microtubule destabilizing substance. Paclitaxel is a microtubule stabilizing compound. Thus, nocodazole as well as paclitaxel interfere with microtubule dynamics and mobilize the spindle assembly checkpoint. […] The mitotic breakthrough can be detected by the decrease of cells with phosphorylation of histone H3 on serine 10. This decline is used as a marker to determine the capability of compounds of the present invention to induce a mitotic breakthrough. The typical morphological alteration of nuclei with a prematurely completed mitosis after SAC-inhibition can be monitored via image analysis routines supporting those findings.
(§2) The nocodazole and paclitaxel variations were used to focus on compounds that are capable of inhibiting a SAC induced by both microtubule destabilization as well as microtubule stabilization. […]
(§3) Cultivated cells of the human cervical tumor cell line HeLa (ATCC CCL-2) were plated at a density of 1000 cells/well in a 1536-well microtiter plate in 2 μl PAA Ham's F12 Medium supplemented with 1% (v/v) glutamine, 1% (v/v) penicillin, 1% (v/v) streptomycin and 10% (v/v) fetal calf serum. […] Images were acquired with a PERKIN ELMER OPERA™ High-Content Analysis reader. Images were analyzed with image analysis software MetaXpress™ from Molecular devices utilizing the Mitotic Index application module. In this assay both labels HOECHST 33342 and phosphorylated Histone H3 on serine 10 were measured. […] The raw assay data were further analyzed by four-parametric hill equation using Genedata's Assay Analyzer and Condoseo software.

[2] = system: spindle assembly checkpoint (phosphorylated histone H3 on serine 10) in HeLa cells; experiment: SAC-Formation - Paclitaxel-Induced Assay; type: cell-based; conditions: Homo sapiens, paclitaxel 0.05 μM, 24 h incubation
Description: as §1, §2, §3

Cc1noc(Nc2cnc(C(F)(F)F)cn2)c1C(=O)Nc1ccc(F)c(F)c1 [Example 1c, N-(3,4-Difluorophenyl)-3-methyl-5-{[5-(trifluoromethyl)pyrazin-2-yl]amino}-1,2-oxazole-4-carboxamide] gave an IC50 [1] of 170 nM and an IC50 [2] of 180 nM.

Cc1noc(Nc2cnc(C(F)(F)F)cn2)c1C(=O)Nc1ccc(OC2CCN(CCC(F)(F)F)CC2)nc1 [Example 1a, 3-Methyl-5-{[5-(trifluoromethyl)pyrazin-2-yl]amino}-N-(6-{[1-(3,3,3-trifluoropropyl)-piperidin-4-yl]oxy}pyridin-3-yl)-1,2-oxazole-4-carboxamide] gave an IC50 [1] of 430 nM and an IC50 [2] of 760 nM.

Work on Cc1noc(Nc2cnc(C(=O)NC3CCN(CC(F)F)CC3)cn2)c1C(=O)Nc1ccc(F)c(F)c1 [Example 1b, N-[1-(2,2-Difluoroethyl)piperidin-4-yl]-5-({4-[(3,4-difluorophenyl)carbamoyl]-3-methyl-1,2-oxazol-5-yl}amino)pyrazine-2-carboxamide] yielded an IC50 [1] of 620 nM and an IC50 [2] of 630 nM.
